Converted amounts (≈) assume the structure as drawn. “Also recorded” adds a separate entry of the source. Like-named read-outs stand apart in the source and are kept apart here. Marks after values point to notes of the source that are not given here.
What was measured:
[1] = system: S. aureus SH1000 biofilms; assay: Biofilm MIC and minimum biofilm eradication concentration, Calgary Biofilm Device; assay type: cell-based, Staphylococcus aureus; settings: Staphylococcus aureus, SH1000BIOFILMS, read-out: bMIC
Description: (§1) Methods: MICs were determined for planktonic cultures by broth microdilution according to British Society for Antimicrobial Chemotherapy (BSAC) guidelines. Biofilm MICs (bMIC) and minimum biofilm eradication concentrations (MBECs) were determined using the Calgary biofilm device. The effect of Compound 10 on the viability of cold culture cells was determined by growing S. aureus SH1000 to early exponential phase at 37° C. and resuspending the cells in pre-chilled media, where they were maintained in the presence and absence of Compound 10 and control agents. The effect of Compound 10 on slow growing cells expressing the stringent response was also determined by growing cultures to early log phase and the stringent response induced by the addition of the isoleucyl-tRNA synthetase inhibitor mupirocin. Compound 10 and control agents were then added and samples recovered for viable cell determinations.
Biofilm MICs and minimum biofilm eradication concentrations (MBEC) were determined in the Calgary Biofilm Device (Nunc Inc, Roskilde, Denmark) as described by Miller et al., 2005. This involves the following steps. Aliquots (200 μL) of exponential phase cultures of strain SH1000 were added to each well of a 96-well microtitre tray. The lid assembly, which has 96 polystyrene pegs corresponding to each well, was then replaced and the system incubated for 24 hours at 37° C. on a rocking platform. Following this a biofilm of approximately 10^7 cfu matured on each peg. The lid was then washed twice in phosphate-buffered saline (PBS) to remove residual planktonic growth and then placed into a microtitre tray with fresh media containing doubling dilutions of the test antibiotic. The system was then incubated for 24 hours at 37° C. on a rocking platform. The MIC was defined as the lowest concentration of antibiotic completely inhibiting visible growth after this incubation. After the MIC was recorded, the lid assembly was again washed twice in PBS to remove planktonic cells and remaining antibiotic and then placed into fresh drug-free media. The system was incubated for a further 24 hours and the MBEC was defined as the lowest concentration of antibiotic completely inhibiting the re-establishment of planktonic growth.

[2] = system: S. aureus SH1000; assay: Planktonic MIC by broth microdilution (BSAC guidelines); assay type: cell-based, Staphylococcus aureus
Description: as §1

[3] = system: S. aureus SH1000 cold cultures; assay: Time-kill against cold cultures (4° C.); assay type: cell-based, Staphylococcus aureus; settings: cold culture held at 4° C. for 5 hours, agents at 4×MIC
Description: as §1
The effect of XF drugs on the viability of cold culture cells was determined by growing S. aureus SH1000 to early exponential phase at 37° C., harvesting the cells by centrifugation (5,000×g, 10 min.) and resuspending them in pre-chilled media where they were maintained in the presence and absence of XF drugs and control agents for 5 hours. […] (FIG. 11).
(§2) The anti-staphylococcal activities of Compound 10, Compound 12 and a range of comparator agents against slow-growing cultures of Staphylococcus aureus were studied using standard time-kill methodology (Oliva et al. 2003, Hobbs et al. 2008). Staphylococcus aureus SH1000 cultures were grown to early exponential phase (OD600 nm of 0.2) in Mueller-Hinton broth (MHB) before being exposed to antibacterial agents at 4×MIC. An untreated culture served as the negative control. The experiments were undertaken in triplicate.
Cold cultures were prepared by growing SH1000 cells to early exponential phase (OD600 nm of 0.2) at 37° C. Cultures were then centrifuged and the cell pellet was resuspended in MHB pre-chilled to 4° C. The killing kinetics of antimicrobial agents were studied as described in the section above, with the exception that cultures were maintained at 4° C. over the 5 hour sampling period.

[4] = system: stringent S. aureus SH1000 cultures; assay: Time-kill against cultures expressing the stringent response (induced with mupirocin); assay type: cell-based, Staphylococcus aureus; settings: stringent response induced with mupirocin, agents at 4×MIC
Description: as §1
When nutrients become limiting for growth bacteria adjust their metabolism from one that supports growth to one that provides for long survival in the absence of nutrients. In many bacteria a key facilitator of this physiological switch, known as the stringent response, is accumulation of guanosine […] and pentaphosphate (Traxler et al., 2008). The antibiotic mupirocin is a strong inducer of the stringent response in S. aureus and effectively causes starvation of charged isoleucyl tRNA by potent inhibition of isoleucy ItRNA synthetase (IRS) (Oliva et al., 2003). The activity of XF drugs against S. aureus SH1000 prevented from growing by the addition of mupirocin (Oliva et al., 2003), was therefore examined (FIG. 10). As an alternative method for arresting growth, bacteria were suspended in cold growth medium (Mascio et al., 2007) and the bactericidal activity of XF drugs was also determined under these conditions (FIG. 11).
as §2
The antibiotic mupirocin is a strong inducer of the stringent response in S. aureus and causes starvation of charged isoleucyl tRNA by potent inhibition of isoleucyl tRNA synthetase (IRS) (Oliva et al. 2003, Cassels et al. 1995) Stringency was induced in SH1000 cultures by adding mupirocin (4 mg/L) to cells in the early exponential growth phase (OD600 nm of 0.2) (Oliva et al. 2003, Cassels et al. 1995). Cultures were incubated with mupirocin for 30 minutes before sampling began. Cultures were maintained at 37° C., and samples were taken at 30 minute intervals for 300 minutes, serially diluted in phosphate buffered saline (PBS) and diluted culture was spread on Mueller-Hinton agar and was incubated at 37° C. for 18-24 hours before the number of CFU were counted.

[5] = system: S. aureus 8325-4; settings: previous studies (Oliva et al., 2003); cited from earlier work
[6] = system: E. coli cells; assay: Binding of compounds with bacterial cells (spectrofluorimetric analysis of cell lysates); settings: 5 min incubation
Description: […] At the end of the incubation period, the cells were sedimented by centrifugation to remove the fraction of unbound test compound and the cell pellet was resuspended in 2 ml of 2% SDS to obtain cell lysates. After overnight incubation with SDS, the amount of cell-bound test compound was estimated by spectrofluorimetric analysis of the cell lysates. The concentration of the compounds in the cell lysates was calculated by measuring the intensities at the maximum of the emission fluorescence spectrum and interpolating the data on a calibration plot. The amount of cell-bound test compound was expressed as nmoles of compound per mg of cell protein. The protein concentration was determined by the method of Lowry (Lowry et al., 1951, J. Biol. Chem. 193:265-275).
All experiments were run in triplicate and the results represent the average of 3 determinations with standard deviations.

[7] = Chemical stability, qualitative stress tests (HPLC, LC-MS); assay type: physicochemical; settings: solid, aqueous solution, PBS, 7 days each at 50, 70 and 90° C.
Description: The following HPLC methodology was established for the analysis of the exemplary compounds of the invention.
The method involves detection by UV at a wavelength of 420 nm, which is very specific for these compounds. In order to monitor impurities not related to the porphyrin structure (and therefore not absorbing at 420 nm) UV spectra of the whole chromatograms were also recorded between 200 nm and 700 nm by DAD (diode array detector) in certain experiments. • Column: Zorbax Phenyl, 250×4.6 mm, 5 µm • Eluent A: 1.5 g sodium dodecylsulfate+1 mL formic acid in 1000 mL water • Eluent B: 1.5 g sodium dodecylsulfate+1 mL formic acid in 200 mL water+800 mL tetrahydrofurane • Gradient:
• Flow rate: 0.4 mL/min • Detection: 420 nm • Column temperature: 25° C. • Injection volume: 10 μl • Solutions: Porphyrin derivatives were dissolved in eluent A to give a final concentration of approximately 0.3 mg/ml.
Qualitative stress tests were undertaken on the exemplary compounds of the invention. Analysis was undertaken by HPLC & LC-MS. The compounds were stress tested in solid form, in an aqueous solution and a solution made up in phosphate-buffered saline buffer. The samples were initially incubated for 7 days at 50° C. and a sample removed for testing. The samples were then incubated for a further 7 days at 70° C., samples removed as before and the samples incubated further for 7 days at 90° C. HPLC analysis of freshly prepared solutions was undertaken and compared to the samples after 7, 14 and 21 days incubation. A visual comparison of the chromatograms was then undertaken and the content of the main products and by-products as area percentage values determined (see FIG. 4).

[8] = system: staphylococci; settings: cited from earlier work; for MIC Values: literature value (Critchley et al. 2003)
[9] = planktonic S. aureus SH1000 (Table 6)

C[C@@H]1O[C@@H]1P(=O)(O)O [Fosfomycin]
MIC ([1]; 24 h, biofilm MIC, S. aureus SH1000, Calgary Biofilm Device, 24 hours (Table 6)): 8 µg/mL (≈ 57.9 µM)
MIC ([1]; biofilm MIC, S. aureus SH1000, Calgary device (Example H)): 8 µg/mL (≈ 57.9 µM)
MIC ([2]; Staphylococcus aureus, planktonic S. aureus SH1000 (Table 5), read-out: MIC): 16 µg/mL (≈ 116 µM)
MIC [2, 9]: 16 µg/mL (≈ 116 µM)
viability / bactericidal activity in time-kill (in words) [3]: no loss of viability
viability / bactericidal activity in time-kill (in words) [4]: no loss of viability; also recorded: completely attenuated
effect of the stringent response on bactericidal activity [5]: completely abolishes the bactericidal activity

CN(C)CCC[N+](C)(C)CCCOc1ccc(-c2c3nc(cc4ccc([nH]4)c(-c4ccc(OCCC[N+](C)(C)CCCN(C)C)cc4)c4nc(cc5ccc2[nH]5)C=C4)C=C3)cc1.[Cl-].[Cl-] [Compound 8, 5,15-bis-(4-{3-[(3-Dimethylamino-propyl)-dimethyl-ammonio]-propyloxy}-phenyl)-porphyrin dichloride]
Bound compound ([6]; 0.01 μM compound, 0 washings): 0.024 ± 0.01 nmoles/mg cell proteins
Bound compound ([6]; 0.01 μM compound, 3 washings): 0.009 ± 0.001 nmoles/mg cell proteins
Bound compound ([6]; 0.1 μM compound, 0 washings): 0.056 ± 0.02 nmoles/mg cell proteins
Bound compound ([6]; 0.1 μM compound, 3 washings): 0.030 ± 0.02 nmoles/mg cell proteins
Bound compound ([6]; 0.5 μM compound, 0 washings): 0.522 ± 0.2 nmoles/mg cell proteins
Bound compound ([6]; 0.5 μM compound, 3 washings): 0.274 ± 0.15 nmoles/mg cell proteins
Bound compound ([6]; 1 μM compound, 0 washings): 3.670 ± 0.7 nmoles/mg cell proteins
Bound compound ([6]; 1 μM compound, 3 washings): 2.230 ± 0.8 nmoles/mg cell proteins
Chemical stability under stress [7]: less stable than Compounds 10 and 12

N[C@@H]1CON=C1O [cycloserine]
effect of the stringent response on bactericidal activity [5]: completely abolishes the bactericidal activity

CN[C@H](CC(C)C)C(=O)N[C@H]1C(=O)N[C@@H](CC(N)=O)C(=O)N[C@H]2C(=O)N[C@H]3C(=O)N[C@H](C(=O)N[C@H](C(=O)O)c4cc(O)cc(O)c4-c4cc3ccc4O)[C@H](O)c3ccc(c(Cl)c3)Oc3cc2cc(c3O[C@@H]2O[C@H](CO)[C@@H](O)[C@H](O)[C@H]2O[C@H]2C[C@](C)(N)[C@H](O)[C@H](C)O2)Oc2ccc(cc2Cl)[C@H]1O [Vancomycin]
MIC ([1]; 24 h): 2 µg/mL (≈ 1.38 µM)
MIC [1]: 2 µg/mL (≈ 1.38 µM)
MIC ([2]; Staphylococcus aureus, SH1000): 1 µg/mL (≈ 0.69 µM)
MIC [2, 9]: 1 µg/mL (≈ 0.69 µM)
MBC Values ([8]; literature value (Biavasco et al. 1997; Fuchs et al. 2002)): 4-16^b μg/mL
MIC Values [8]: 1^a μg/mL
viability / bactericidal activity in time-kill (in words) [3]: no loss of viability; also recorded: abolished
viability / bactericidal activity in time-kill (in words) [4]: no loss of viability
effect of the stringent response on bactericidal activity [5]: completely abolishes the bactericidal activity

CC(=O)NC[C@H]1CN(c2ccc(N3CCOCC3)c(F)c2)C(=O)O1 [Zyvox ® (Linezolid), Linezolid]
MIC Values [8]: 4^a μg/mL

Reference: patent US9326511B2, “Methods of inhibiting microbial biofilms” (priority 2008, dated 2016)
